Laboratory results: patent publication US20110189318A1, “METHODS FOR ENHANCING THE EXPRESSION OF INTRACELLULAR REDOX-ASSOCIATED FACTORS” (priority 2010, published 2011)

How the values were obtained:
thioredoxin superfamily = assay: Screen for flavonoid compounds enhancing expression of thioredoxin superfamily in keratinocytes; format: cell-based; conditions: normal human epidermal keratinocytes, 10 μM, 24 hours; FIG. 3
Experimental: Normal human epidermal keratinocytes (KK-4009, KURABO) were cultured in Defined Keratinocyte-SFM medium (10744-019, GIBCO) with 5% CO2 under high humidity at 37° C. For the cells with 100% of final density, the medium was replaced with EpiLife™ Calcium-Free Phenol Red Free medium (M-EPICF/PRF-500, KURABO) whose calcium concentration had been adjusted to 1.5 mM. Twenty-four hours later, each of the following agents was added so as to have a final concentration of 10 μM.
Twenty-four hours after adding the above agents, the mRNA expression levels of the redox-associated factors were quantified by the same method as Example 1.

IL1β = assay: Suppression of expression of inflammatory cytokine IL1β mRNA in keratinocytes; format: cell-based; conditions: normal human epidermal keratinocytes, kaempferol 10 μM, extracts 0.1%, 24 hours; FIG. 6
Experimental: Normal human epidermal keratinocytes (KK-4009, KURABO) were cultured in Defined Keratinocyte-SFM medium (10744-019, GIBCO) with 5% CO2 under high humidity at 37° C. For the cells with 100% of final density, the medium was replaced with EpiLifeTM Calcium-Free Phenol Red Free medium ([…]) in which calcium concentration had been adjusted to 1.5 mM. Twenty-four hours later, kaempferol was added to have 10 μM of final concentration and each of the following plant extracts was added to have a final concentration of 0.1%. kaempferol ([…], Tokyo Chemical Industry Co., Ltd); K. galanga extract: which is obtained by the extraction of Kaempferia galanga rhizomes with 50% 1,3-butylene glycol; Ginkgo leaf extract: which is obtained by resolving 50% ethanol extract from Ginkgo biloba L. leaves in 1,3-butylene glycol. Twenty-four hours after adding the above agents, RNA was isolated by the same method as Example 1, and the mRNA expression level of the inflammation-associated factor (IL1β) was quantified. The used primers are shown below. The mRNA amount of IL1β was divided by the mRNA amount of the ribosomal protein to obtain the mRNA expression level.

thioredoxin reductase = assay: Thioredoxin reductase activity in lysates of treated keratinocytes; format: cell-based; conditions: normal human epidermal keratinocytes, 10 μM, 24 hours, relative to control; FIG. 5
Experimental: Normal human epidermal keratinocytes (KK-4009, KURABO) were cultured in Defined Keratinocyte-SFM medium (10744-019, GIBCO) with 5% CO2 under high humidity at 37° C. For the cells with 100% of final density, the medium was replaced with EpiLife™ Calcium-Free Phenol Red Free medium (M-EPICF/PRF-500, KURABO) whose calcium concentration had been adjusted to 1.5 mM. Twenty-four hours later, kaempferol (K0018, Tokyo Chemical Industry Co., Ltd) or quercetin (173-00403, Wako Pure Chemical Industries, Ltd.) was added so as to have a final concentration of 10 μM. Twenty-four hours after adding the agents, the cells were dissolved in lysis buffer, and the insoluble fraction was removed by centrifugation at 14,000 rpm, 4° C. for 15 minutes. The amount of total protein in the soluble fraction was quantified, and then thioredoxin reductase activity was measured by the method of Arne Holmgren et al. (METHODS IN ENZYMOLOGY, 1995, 252, 199-208).

[1] = tested on: thioredoxin reductase and glutathione reductase; assay: mRNA expression of redox-associated factors in skin-equivalent models (q-PCR); format: cell-based, human; conditions: epidermal layer, 2 μM or 10 μM, 24 hours, FIG. 2
Experimental: Skin-equivalent models were made from normal human keratinocytes (Invitrogen), normal human fibroblasts (ATCC) and collagen I (Sigma), and cultured in Dulbecco's Modified Eagle's Medium (D-MEM) (Invitrogen) with 5% CO2 under high humidity at 37° C. Two μM or 10 μM kaempferol was added into the culture medium, and the models were cultured for twenty-four hours. Then RNA was isolated from epidermal layer of the skin-equivalent models by using a QIAGEN mRNA isolation kit. Subsequently, mRNAs of thioredoxin reductase and glutathione reductase, and 36B4 as an internal standard, were quantified by q-PCR (quantitative PCR by Bio-Rad MyiQ™ single color real time PCR detection system) using the Real-time PCR kit (Bio-Rad). The primers were purchased from QIAGEN (TXNRD2: #QT00070371; GSR; #QT00038325). The amounts of thioredoxin reductase and glutathione reductase were divided by the mRNA amount of 36B4 to obtain the mRNA expression level.

[2] = tested on: redox-associated factors (thioredoxin reductase, thioredoxin, glutathione reductase, glutaredoxin); assay: mRNA expression of redox-associated factors in normal human epidermal keratinocytes (RT-PCR); format: cell-based; conditions: 10 μM, 24 hours, compared with vitamin E and lipoic acid, FIG. 1
Experimental: Normal human epidermal keratinocytes (KK-4009, KURABO) were cultured in Defined Keratinocyte-SFM medium (10744-019, GIBCO) with 5% CO2 under high humidity at 37° C. For the cells with 100% of final density, the medium was replaced with EpiLife™ Calcium-Free Phenol Red Free medium (M-EPICF/PRF-500, KURABO) whose calcium concentration had been adjusted to 1.5 mM. Twenty-four hours later, kaempferol (K0018, Tokyo Chemical Industry Co., Ltd), vitamin E (95240, FULKA), or lipoic acid ((+/−)-α-lipoic acid (T1395, SIGMA) was added so as to have a final concentration of 10 μM.
Twenty-four hours after adding the above agents, RNA was isolated by using QIAZOL Lysis Reagent (79306, QIAGEN) and purified by using RNeasy Kit (74106, QIAGEN). Subsequently, mRNAs of thioredoxin reductase, thioredoxin, glutathione reductase, glutaredoxin, and the ribosomal protein as an internal standard were quantified by the LightCycler™ software (Roche) using QuantiTect™ SYBR Green RT-PCR Kit (204243, QIAGEN). The Sequences of the used primers are shown below.
The mRNA amounts of thioredoxin reductase, thioredoxin, glutathione reductase and glutaredoxin were divided by the mRNA amount of the ribosomal protein to obtain the mRNA expression levels.

Structure (SMILES) | expression of the thioredoxin superfamily (mRNA expression level) (thioredoxin superfamily) | suppression of the inflammatory cytokine IL1β (mRNA expression level) (IL1β) | thioredoxin reductase activity (thioredoxin reductase) | expression of the redox-associated factors (mRNA expression level) [1] | expression of the redox-associated factors (mRNA expression level) [2]
O=c1c(O)c(-c2cc(O)c(O)c(O)c2)oc2cc(O)cc(O)c12 [Myricetin, reference compound] | does not have such a function | – | – | – | –
O=c1c(O)c(-c2ccc(O)cc2)oc2cc(O)cc(O)c12 [kaempferol, Kaempferol] | significantly enhance | suppression | enhance | significantly enhanced | significantly enhanced
O=c1c(O)c(-c2ccc(O)c(O)c2)oc2cc(O)cc(O)c12 [quercetin, Quercetin] | significantly enhance | – | enhance | – | –
